{"source": "patent US20030118594A1", "about": "“STABLE FORMULATIONS OF MHC-PEPTIDE COMPLEXES” (priority 1995, published 2003)", "key": {"[1]": {"experiment": "Aggregation assay by size-exclusion HPLC and SDS-PAGE", "format": "physicochemical", "conditions": "DM concentration below 0.05%, FIG. 4, 5", "experimental": "Three non-ionic detergents (DM, OG, and Tween-80) were tested. The experiments were carried out as generally described in U.S. Pat. Nos. 5,130,297, 5,194,425, 5,260,422 and 5,284,935, all of which are incorporated herein by reference. Briefly, HLA-DR2 was purified from EBV-transformed lymphoblastoid cells [GM03107] obtained from the National Institute of General Medical Sciences human genetic mutant cell repository (Corinell Institute of Medical Research, NJ.). A triton X-100 cell lysate was prepared and applied to a L243 coupled sepharose-4B column and the bound DR2 was eluted in phosphate buffer containing 0.05% n-dodecyl β-D-maltoside (DM) detergent at pH 11.3. Fractions were immediately neutralized with 20% monobasic phosphate and the DR2 pool was collected through a DEAE ion exchange column in 20 mM phosphate buffer containing 0.5 M NaCl and 0.05% DM, pH 6.0. The flow through purified protein solution from the DEAE column was neutralized with 10% tribasic sodium phosphate, filtered through a 180 kD membrane and concentrated to 1 mg/ml. The final DR2 preparation was characterized by 13.5% SDS polyacrylamide gel electrophoresis followed by silver staining.\nTo prepare the DR2-peptide complex, purified DR2 was dialyzed against 100 mM citrate buffer pH 6.0 containing 0.05% DM for 24 hours at 4° C. prior to the addition of MBP(83-102)Y^83 peptide. […]"}, "[2]": {"system": "HLA-DR2", "experiment": "Occupancy of MHC molecules with peptide (loading)", "format": "binding, human", "conditions": "DR2 and MBP(83-102)Y^83 complexes prepared in the named detergent", "experimental": "To prepare the DR2-peptide complex, purified DR2 was dialyzed against 100 mM citrate buffer pH 6.0 containing 0.05% DM for 24 hours at 4° C. prior to the addition of MBP(83-102)Y^83 peptide. The reaction mixture was incubated at 37° C. for 96 hours and free peptide was removed by Sephacryl S200 gel filtration.\nAs noted in the figure, the occupancy of the MHC molecules (i.e., proportion of the molecules complexed with peptide) was 90% in DM, 40% in octylglucoside and 76% in Tween-80)."}, "[3]": {"system": "mouse", "experiment": "GLP Toxicology: Acute Range-finding", "format": "in vivo", "conditions": "i.v., 400 ug/kg, bolus", "experimental": "(§1) Safety and toxicity studies were carried out for the intravenous administration of dodecyl-β-D-maltoside in various animal models."}, "[4]": {"system": "mouse", "experiment": "GLP Toxicology: Subacute - full histo", "format": "in vivo", "conditions": "i.v., QD14", "experimental": "as §1"}, "[5]": {"system": "mouse", "experiment": "Safety Pharmacology: Neuropharm profile", "format": "in vivo", "conditions": "i.v., bolus", "experimental": "as §1"}, "[6]": {"system": "rat", "experiment": "Safety Pharmacology: Diuretic Assay", "format": "in vivo", "conditions": "i.v., bolus", "experimental": "as §1"}, "[7]": {"system": "mouse", "experiment": "Safety Pharmacology: Barbit Sleep Potent", "format": "in vivo", "conditions": "i.v., bolus", "experimental": "as §1"}, "[8]": {"system": "dog", "experiment": "Safety Pharmacology: Cardiovasc Effects", "format": "in vivo", "conditions": "i.v.", "experimental": "as §1"}, "[9]": {"system": "various animal models", "experiment": "Safety and toxicity studies, intravenous administration in various animal models", "format": "in vivo", "conditions": "i.v. administration at various tested doses, summary of Table 1", "experimental": "as §1"}, "[10]": {"system": "T-cells", "experiment": "Toxicity of detergents to T-cells", "format": "cell-based", "experimental": "A number of detergents were studied for their ability to solubilize human HLA-DR2 and MHC-peptide complexes. In addition the complexes prepared in the detergents were assayed for activity. A summary of structural and physical characteristics of various detergents used for solubilization of HLA-DR2 is presented in FIG. 1."}}, "note": "Where two headings read alike, the source gives them in different places."}
{"compound": "CCCCCCCCCCCCO[C@@H]1O[C@H](CO)[C@@H](O[C@H]2O[C@H](CO)[C@@H](O)[C@H](O)[C@H]2O)[C@H](O)[C@H]1O", "note": "[DM, dodecyl β-D maltoside]", "values": [{"measurement": "aggregation level of DR2", "setting": "[1]", "value": "increased aggregation level of DR2"}, {"measurement": "occupancy of the MHC molecules (proportion of the molecules complexed with peptide)", "setting": "[2]", "value": 90, "unit": "%"}, {"measurement": "Results, Acute Range-finding", "setting": "[3]", "value": "poss kindey cortical"}, {"measurement": "Results, Subacute - full histo", "setting": "[4]; 4 ug/kg", "value": "No Eff @ necr/clin-path"}, {"measurement": "Results, Subacute - full histo", "setting": "[4]; 40 ug/kg", "value": "No Effects"}, {"measurement": "Results, Subacute - full histo", "setting": "[4]; 400 ug/kg", "value": "D14 Spleen wt slightly"}, {"measurement": "Results, Neuropharm profile", "setting": "[5]; 10 ug/kg", "value": "No Effects"}, {"measurement": "Results, Neuropharm profile", "setting": "[5]; 100 ug/kg", "value": "No Effects"}, {"measurement": "Results, Diuretic Assay", "setting": "[6]; 10 ug/kg", "value": "No Effects"}, {"measurement": "Results, Diuretic Assay", "setting": "[6]; 100 ug/kg", "value": "No Effects"}, {"measurement": "Results, Barbit Sleep Potent", "setting": "[7]; 10 ug/kg", "value": "No Effects"}, {"measurement": "Results, Barbit Sleep Potent", "setting": "[7]; 100 ug/kg", "value": "No Effects"}, {"measurement": "Results, Cardiovasc Effects", "setting": "[8]; 10 ug/kg, bolus", "value": "No Effects"}, {"measurement": "Results, Cardiovasc Effects", "setting": "[8]; up if NOEL to 100 ug/kg", "value": "No Effects"}, {"measurement": "toxic effects", "setting": "[9]", "value": "no toxic effects"}]}
{"compound": "CCCCCCCCO[C@@H]1O[C@H](CO)[C@@H](O)[C@H](O)[C@H]1O", "note": "[octylglucoside, octyl glucoside]", "values": [{"measurement": "occupancy of the MHC molecules (proportion of the molecules complexed with peptide)", "setting": "[2]", "value": 40, "unit": "%"}]}
{"compound": "CCCCCCCC/C=C\\CCCCCCCC(=O)OCCOCC(OCCO)C1OCC(OCCO)C1OCCO", "note": "(stereo not shown) [Tween-80]", "values": [{"measurement": "occupancy of the MHC molecules (proportion of the molecules complexed with peptide)", "setting": "[2]", "value": 76, "unit": "%"}]}
{"compound": "Pluronic F-127", "values": [{"measurement": "toxicity to T-cells", "setting": "[10]", "value": "toxic to T-cells"}]}
{"compound": "C[C@H](CCC(=O)NCCC[N+](C)(C)CCCS(=O)(=O)[O-])[C@H]1CC[C@H]2[C@@H]3[C@H](O)C[C@@H]4C[C@H](O)CC[C@]4(C)[C@H]3C[C@H](O)[C@]12C", "note": "[CHAPS]", "values": [{"measurement": "toxicity to T-cells", "setting": "[10]; detergents for solubilization of HLA-DR2", "value": "toxic to T-cells"}]}
